Data published in paper PMC8698302, “An Antibacterial Peptide with High Resistance to Trypsin Obtained by Substituting D-Amino Acids for Trypsin Cleavage Sites” (Antibiotics, 2021).
≈ marks a conversion by molar mass, not a printed value. Where two headings read alike, the source gives them in different places.

Columns and labels:
Assay in all cases: Antimicrobial susceptibility test of clinical isolated strains
Assay type in all cases: cell-based
Escherichia coli w123 = conditions: for Antimicrobial susceptibility test result (category): according to CLSI 2015 guidelines
Procedure: (§1) Table S1. Antimicrobial susceptibility test of clinical isolated strains used in this study (MIC, μg/mL).
(§2) 1Antimicrobial susceptibility test results were determined according to CLSI 2015 guidelines, where "R" stands for drug resistance,
(§3) "I" stands for intermediate, "S" stands for susceptible. […]

Shigella flexneri QY1 = conditions: for Antimicrobial susceptibility test result (category): according to CLSI 2015 guidelines
Procedure: as §1, §2, §3

Escherichia coli S1N1 = conditions: for Antimicrobial susceptibility test result (category): according to CLSI 2015 guidelines
Procedure: as §1, §2, §3

Escherichia coli SN5 = conditions: for Antimicrobial susceptibility test result (category): according to CLSI 2015 guidelines
Procedure: as §1, §2, §3

Escherichia coli QY = conditions: for Antimicrobial susceptibility test result (category): according to CLSI 2015 guidelines
Procedure: as §1, §2, §3

Escherichia coli w122 = conditions: for Antimicrobial susceptibility test result (category): according to CLSI 2015 guidelines
Procedure: as §1, §2, §3

Escherichia coli w136 = conditions: for Antimicrobial susceptibility test result (category): according to CLSI 2015 guidelines
Excerpt: as §1, §3

Escherichia coli w124 = conditions: for Antimicrobial susceptibility test result (category): according to CLSI 2015 guidelines
Excerpt: as §1, §3

[1] = tested on: Methicillin-resistant Staphylococcus aureus HP; conditions: for MIC: Staphylococcus aureus, antibiotic susceptibility, CLSI 2015 guidelines; for Antimicrobial susceptibility test result (category): according to CLSI 2015 guidelines
Procedure: as §1, §2, §3

[2] = antibiotic susceptibility, CLSI 2015 guidelines
[3] = Escherichia coli, W123, antibiotic susceptibility, CLSI 2015 guidelines, read-out: MIC
[4] = Escherichia coli, S1N1, antibiotic susceptibility, CLSI 2015 guidelines, read-out: MIC
[5] = Escherichia coli, SN5, antibiotic susceptibility, CLSI 2015 guidelines, read-out: MIC
[6] = Escherichia coli, antibiotic susceptibility, CLSI 2015 guidelines, read-out: MIC
[7] = Escherichia coli, W122, antibiotic susceptibility, CLSI 2015 guidelines, read-out: MIC
[8] = Escherichia coli, W136, antibiotic susceptibility, CLSI 2015 guidelines, read-out: MIC
[9] = Escherichia coli, W124, antibiotic susceptibility, CLSI 2015 guidelines, read-out: MIC

## PolymixinB
Escherichia coli w123
  Antimicrobial susceptibility test result (category): S
Escherichia coli w123; [2]
  MIC: 0.5 µg/mL
Shigella flexneri QY1
  Antimicrobial susceptibility test result (category): S
Shigella flexneri QY1; [2]
  MIC: 0.5 µg/mL
Escherichia coli S1N1
  Antimicrobial susceptibility test result (category): S
Escherichia coli S1N1; [2]
  MIC: 0.5 µg/mL
Escherichia coli SN5
  Antimicrobial susceptibility test result (category): S
Escherichia coli SN5; [2]
  MIC: 0.5 µg/mL
Escherichia coli QY
  Antimicrobial susceptibility test result (category): S
Escherichia coli QY; [2]
  MIC: 1 µg/mL
Escherichia coli w122
  Antimicrobial susceptibility test result (category): S
Escherichia coli w122; [2]
  MIC: 0.5 µg/mL
Escherichia coli w136
  Antimicrobial susceptibility test result (category): R
Escherichia coli w136; [2]
  MIC: 8 µg/mL
Escherichia coli w124
  Antimicrobial susceptibility test result (category): S
Escherichia coli w124; [2]
  MIC: 0.5 µg/mL

## Cc1noc(NS(=O)(=O)c2ccc(N)cc2)c1C [Sulfafurazole]
Escherichia coli w123; Escherichia coli, W123
  MIC: 512 µg/mL (≈ 1920 µM)
Escherichia coli w123
  Antimicrobial susceptibility test result (category): R
Shigella flexneri QY1; Shigella flexneri, QY1
  MIC: > 512 µg/mL
Shigella flexneri QY1
  Antimicrobial susceptibility test result (category): R
Escherichia coli S1N1; Escherichia coli, S1N1
  MIC: 512 µg/mL (≈ 1920 µM)
Escherichia coli S1N1
  Antimicrobial susceptibility test result (category): R
Escherichia coli SN5; Escherichia coli, SN5
  MIC: > 512 µg/mL
Escherichia coli SN5
  Antimicrobial susceptibility test result (category): R
Escherichia coli QY; Escherichia coli
  MIC: 512 µg/mL (≈ 1920 µM)
Escherichia coli QY
  Antimicrobial susceptibility test result (category): R
Escherichia coli w122; Escherichia coli, W122
  MIC: 512 µg/mL (≈ 1920 µM)
Escherichia coli w122
  Antimicrobial susceptibility test result (category): R
Escherichia coli w136; Escherichia coli, W136
  MIC: 512 µg/mL (≈ 1920 µM)
Escherichia coli w136
  Antimicrobial susceptibility test result (category): R
Escherichia coli w124; Escherichia coli, W124
  MIC: 512 µg/mL (≈ 1920 µM)
Escherichia coli w124
  Antimicrobial susceptibility test result (category): R

## CO/N=C(\C(=O)N[C@@H]1C(=O)N2C(C(=O)O)=C(CSc3nc(=O)c(=O)[nH]n3C)CS[C@H]12)c1csc(N)n1 [Ceftriaxone]
Escherichia coli w123; [3]
  MIC: 32 µg/mL (≈ 57.7 µM)
Escherichia coli w123
  Antimicrobial susceptibility test result (category): R
Shigella flexneri QY1; Shigella flexneri, QY1
  MIC: 4 µg/mL (≈ 7.21 µM)
Shigella flexneri QY1
  Antimicrobial susceptibility test result (category): R
Escherichia coli S1N1; [4]
  MIC: 16 µg/mL (≈ 28.9 µM)
Escherichia coli S1N1
  Antimicrobial susceptibility test result (category): R
Escherichia coli SN5; [5]
  MIC: 16 µg/mL (≈ 28.9 µM)
Escherichia coli SN5
  Antimicrobial susceptibility test result (category): R
Escherichia coli QY; [6]
  MIC: 64 µg/mL (≈ 115 µM)
Escherichia coli QY
  Antimicrobial susceptibility test result (category): R
Escherichia coli w122; [7]
  MIC: 32 µg/mL (≈ 57.7 µM)
Escherichia coli w122
  Antimicrobial susceptibility test result (category): R
Escherichia coli w136; [8]
  MIC: 0.06 µg/mL (≈ 0.108 µM)
Escherichia coli w136
  Antimicrobial susceptibility test result (category): S
Escherichia coli w124; [9]
  MIC: 4 µg/mL (≈ 7.21 µM)
Escherichia coli w124
  Antimicrobial susceptibility test result (category): R

## CC[C@H]1OC(=O)[C@H](C)[C@@H](O[C@H]2C[C@@](C)(OC)[C@@H](O)[C@H](C)O2)[C@H](C)[C@@H](O[C@@H]2O[C@H](C)C[C@H](N(C)C)[C@H]2O)[C@](C)(O)C[C@@H](C)CN(C)[C@H](C)[C@@H](O)[C@]1(C)O [Azithromycin]
Escherichia coli w123; [3]
  MIC: 4 µg/mL (≈ 5.34 µM)
Escherichia coli w123
  Antimicrobial susceptibility test result (category): S
Shigella flexneri QY1; Shigella flexneri, QY1
  MIC: 64 µg/mL (≈ 85.4 µM)
Shigella flexneri QY1
  Antimicrobial susceptibility test result (category): R
Escherichia coli S1N1; [4]
  MIC: 4 µg/mL (≈ 5.34 µM)
Escherichia coli S1N1
  Antimicrobial susceptibility test result (category): S
Escherichia coli SN5; [5]
  MIC: 4 µg/mL (≈ 5.34 µM)
Escherichia coli SN5
  Antimicrobial susceptibility test result (category): S
Escherichia coli QY; [6]
  MIC: 8 µg/mL (≈ 10.7 µM)
Escherichia coli QY
  Antimicrobial susceptibility test result (category): S
Escherichia coli w122; [7]
  MIC: 4 µg/mL (≈ 5.34 µM)
Escherichia coli w122
  Antimicrobial susceptibility test result (category): S
[1]
  MIC: 1 µg/mL (≈ 1.34 µM)
  Antimicrobial susceptibility test result (category): S
Escherichia coli w136; [8]
  MIC: 2 µg/mL (≈ 2.67 µM)
Escherichia coli w136
  Antimicrobial susceptibility test result (category): S
Escherichia coli w124; [9]
  MIC: 4 µg/mL (≈ 5.34 µM)
Escherichia coli w124
  Antimicrobial susceptibility test result (category): S

## CO[C@H]1/C=C/O[C@@]2(C)Oc3c(C)c(O)c4c(O)c(c(/C=N/N5CCN(C)CC5)c(O)c4c3C2=O)NC(=O)/C(C)=C\C=C\[C@H](C)[C@H](O)[C@@H](C)[C@@H](O)[C@@H](C)[C@H](OC(C)=O)[C@@H]1C [Rifampicin]
Escherichia coli w123; [3]
  MIC: 4 µg/mL (≈ 4.86 µM)
Escherichia coli w123
  Antimicrobial susceptibility test result (category): S
Shigella flexneri QY1; Shigella flexneri, QY1
  MIC: 2 µg/mL (≈ 2.43 µM)
Shigella flexneri QY1
  Antimicrobial susceptibility test result (category): S
Escherichia coli S1N1; [4]
  MIC: 2 µg/mL (≈ 2.43 µM)
Escherichia coli S1N1
  Antimicrobial susceptibility test result (category): S
Escherichia coli SN5; [5]
  MIC: 1 µg/mL (≈ 1.22 µM)
Escherichia coli SN5
  Antimicrobial susceptibility test result (category): S
Escherichia coli QY; [6]
  MIC: 4 µg/mL (≈ 4.86 µM)
Escherichia coli QY
  Antimicrobial susceptibility test result (category): S
Escherichia coli w122; [7]
  MIC: 4 µg/mL (≈ 4.86 µM)
Escherichia coli w122
  Antimicrobial susceptibility test result (category): S
[1]
  MIC: 8 µg/mL (≈ 9.72 µM)
  Antimicrobial susceptibility test result (category): R
Escherichia coli w136; [8]
  MIC: 64 µg/mL (≈ 77.8 µM)
Escherichia coli w136
  Antimicrobial susceptibility test result (category): R
Escherichia coli w124; [9]
  MIC: 4 µg/mL (≈ 4.86 µM)
Escherichia coli w124
  Antimicrobial susceptibility test result (category): S

## COc1cccc(OC)c1C(=O)N[C@@H]1C(=O)N2[C@@H]1SC(C)(C)[C@@H]2C(=O)O [methicillin]
Escherichia coli w123; [3]
  MIC: 128 µg/mL (≈ 336 µM)
Escherichia coli w123
  Antimicrobial susceptibility test result (category): R
Shigella flexneri QY1; Shigella flexneri, QY1
  MIC: 32 µg/mL (≈ 84.1 µM)
Shigella flexneri QY1
  Antimicrobial susceptibility test result (category): R
Escherichia coli S1N1; [4]
  MIC: 128 µg/mL (≈ 336 µM)
Escherichia coli S1N1
  Antimicrobial susceptibility test result (category): R
Escherichia coli SN5; [5]
  MIC: 64 µg/mL (≈ 168 µM)
Escherichia coli SN5
  Antimicrobial susceptibility test result (category): R
Escherichia coli w122; [7]
  MIC: 64 µg/mL (≈ 168 µM)
Escherichia coli w122
  Antimicrobial susceptibility test result (category): R
[1]
  MIC: 128 µg/mL (≈ 336 µM)
  Antimicrobial susceptibility test result (category): R

## CS(=O)(=O)c1ccc([C@@H](O)[C@@H](CF)NC(=O)C(Cl)Cl)cc1 [Florfenicol]
Escherichia coli w123; [3]
  MIC: 128 µg/mL (≈ 357 µM)
Escherichia coli w123
  Antimicrobial susceptibility test result (category): R
Shigella flexneri QY1; Shigella flexneri, QY1
  MIC: 2 µg/mL (≈ 5.58 µM)
Shigella flexneri QY1
  Antimicrobial susceptibility test result (category): S
Escherichia coli S1N1; [4]
  MIC: 2 µg/mL (≈ 5.58 µM)
Escherichia coli S1N1
  Antimicrobial susceptibility test result (category): S
Escherichia coli SN5; [5]
  MIC: 4 µg/mL (≈ 11.2 µM)
Escherichia coli SN5
  Antimicrobial susceptibility test result (category): S
Escherichia coli QY; [6]
  MIC: 128 µg/mL (≈ 357 µM)
Escherichia coli QY
  Antimicrobial susceptibility test result (category): R
Escherichia coli w122; [7]
  MIC: 128 µg/mL (≈ 357 µM)
Escherichia coli w122
  Antimicrobial susceptibility test result (category): R
Escherichia coli w136; [8]
  MIC: 128 µg/mL (≈ 357 µM)
Escherichia coli w136
  Antimicrobial susceptibility test result (category): R
Escherichia coli w124; [9]
  MIC: 128 µg/mL (≈ 357 µM)
Escherichia coli w124
  Antimicrobial susceptibility test result (category): R

## CNC(C)C1CCC(N)C(OC2C(N)CC(N)C(OC3OCC(C)(O)C(NC)C3O)C2O)O1 (stereo not shown) [Gentamicin]
Escherichia coli w123; [3]
  MIC: 1 µg/mL (≈ 2.09 µM)
Escherichia coli w123
  Antimicrobial susceptibility test result (category): S
Shigella flexneri QY1; Shigella flexneri, QY1
  MIC: 1 µg/mL (≈ 2.09 µM)
Shigella flexneri QY1
  Antimicrobial susceptibility test result (category): S
Escherichia coli S1N1; [4]
  MIC: < 0.03 µg/mL
Escherichia coli S1N1
  Antimicrobial susceptibility test result (category): S
Escherichia coli SN5; [5]
  MIC: < 0.03 µg/mL
Escherichia coli SN5
  Antimicrobial susceptibility test result (category): S
Escherichia coli QY; [6]
  MIC: > 512 µg/mL
Escherichia coli QY
  Antimicrobial susceptibility test result (category): R
Escherichia coli w122; [7]
  MIC: 1 µg/mL (≈ 2.09 µM)
Escherichia coli w122
  Antimicrobial susceptibility test result (category): S
[1]
  MIC: 16 µg/mL (≈ 33.5 µM)
  Antimicrobial susceptibility test result (category): R
Escherichia coli w136; [8]
  MIC: 8 µg/mL (≈ 16.8 µM)
Escherichia coli w136
  Antimicrobial susceptibility test result (category): I
Escherichia coli w124; [9]
  MIC: 8 µg/mL (≈ 16.8 µM)
Escherichia coli w124
  Antimicrobial susceptibility test result (category): I

## CN(C)[C@@H]1C(O)=C(C(N)=O)C(=O)[C@@]2(O)C(O)=C3C(=O)c4c(O)cccc4[C@@](C)(O)[C@H]3C[C@@H]12 [Tetracycline]
Escherichia coli w123; [3]
  MIC: 32 µg/mL (≈ 72 µM)
Escherichia coli w123
  Antimicrobial susceptibility test result (category): R
Shigella flexneri QY1; Shigella flexneri, QY1
  MIC: 32 µg/mL (≈ 72 µM)
Shigella flexneri QY1
  Antimicrobial susceptibility test result (category): R
Escherichia coli S1N1; [4]
  MIC: 32 µg/mL (≈ 72 µM)
Escherichia coli S1N1
  Antimicrobial susceptibility test result (category): R
Escherichia coli SN5; [5]
  MIC: 64 µg/mL (≈ 144 µM)
Escherichia coli SN5
  Antimicrobial susceptibility test result (category): R
Escherichia coli QY
  Antimicrobial susceptibility test result (category): R
Escherichia coli w122; [7]
  MIC: 32 µg/mL (≈ 72 µM)
Escherichia coli w122
  Antimicrobial susceptibility test result (category): R
[1]
  MIC: 32 µg/mL (≈ 72 µM)
  Antimicrobial susceptibility test result (category): R
Escherichia coli w136
  Antimicrobial susceptibility test result (category): R
Escherichia coli w124
  Antimicrobial susceptibility test result (category): R
